According to ChEMBL document CHEMBL1201862, “PubChem BioAssay data set” (2004):
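Exposure lasted 48 hours, with cells grown in 96-well plates and compounds tested at five concentrations. Abbreviation: GI50, concentration required for 50% inhibition of growth.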 Calls of active or inactive are those of the source. No stated cut-off is given here; in the data, active = GI50 up to about 1.1 µM and inactive = higher.

Legend:
Assay in all cases: NCI anticancer screen, dose series, 48 h
KM12 = system: KM12
HL-60 = system: HL-60
ACHN = system: ACHN
OVCAR-5 = system: OVCAR-5
IGROV-1 = system: IGROV-1
BT-549 = system: BT-549
HCT-116 = system: HCT-116
CAKI-1 = system: CAKI-1
MDA-MB-231 = system: MDA-MB-231
K562 = system: K562
SF-295 = system: SF-295
NCI-H226 = system: NCI-H226
MDA-MB-435 = system: MDA-MB-435
MOLT-4 = system: MOLT-4
U-251 = system: U-251
A549 = system: A549
SR = system: SR
SNB-75 = system: SNB-75
DU-145 = system: DU-145
HCT-15 = system: HCT-15
SK-MEL-28 = system: SK-MEL-28
EKVX = system: EKVX
UO-31 = system: UO-31
SNB-19 = system: SNB-19
HCC 2998 = system: HCC 2998
NCI-H522 = system: NCI-H522
SW-620 = system: SW-620
NCI-H23 = system: NCI-H23
SK-MEL-5 = system: SK-MEL-5
UACC-62 = system: UACC-62
MDA-N = system: MDA-N
MCF7 = system: MCF7
PC-3 = system: PC-3
Malme-3M = system: Malme-3M
COLO 205 = system: COLO 205
UACC-257 = system: UACC-257
786-0 = system: 786-0
CCRF-CEM = system: CCRF-CEM
OVCAR-8 = system: OVCAR-8
T47D = system: T47D
HT-29 = system: HT-29
HOP-62 = system: HOP-62
SF-539 = system: SF-539
OVCAR-3 = system: OVCAR-3
TK-10 = system: TK-10
Hs-578T = system: Hs-578T
RXF 393 = system: RXF 393
SN12C = system: SN12C
RPMI-8226 = system: RPMI-8226
SF-268 = system: SF-268
NCI-H460 = system: NCI-H460
LOX IMVI = system: LOX IMVI
NCI/ADR-RES = system: NCI/ADR-RES
A498 = system: A498
SK-MEL-2 = system: SK-MEL-2
OVCAR-4 = system: OVCAR-4
SK-OV-3 = system: SK-OV-3
HOP-92 = system: HOP-92

## O=c1c(SSc2coc3cc(F)ccc3c2=O)coc2cc(F)ccc12
KM12
  GI50: 8.95 µM (inactive)
HL-60
  GI50: 8.59 µM (inactive)
ACHN
  GI50: 6.92 µM (inactive)
OVCAR-5
  GI50: 37.8 µM (inactive)
IGROV-1
  GI50: 2.95 µM (inactive)
BT-549
  GI50: > 100 µM (inactive)
HCT-116
  GI50: 5.14 µM (inactive)
CAKI-1
  GI50: 20.1 µM (inactive)
MDA-MB-231
  GI50: 11.5 µM (inactive)
K562
  GI50: 19.9 µM (inactive)
SF-295
  GI50: 6.68 µM (inactive)
NCI-H226
  GI50: > 100 µM (inactive)
MDA-MB-435
  GI50: 11.1 µM (inactive)
MOLT-4
  GI50: 7.31 µM (inactive)
U-251
  GI50: 21.3 µM (inactive)
A549
  GI50: 7.29 µM (inactive)
SR
  GI50: 31.3 µM (inactive)
SNB-75
  GI50: 11 µM (inactive)
DU-145
  GI50: 47.3 µM (inactive)
HCT-15
  GI50: 13.8 µM
SK-MEL-28
  GI50: 5.58 µM (inactive)
EKVX
  GI50: 21.1 µM (inactive)
UO-31
  GI50: 11.4 µM (inactive)
SNB-19
  GI50: 43.5 µM (inactive)
HCC 2998
  GI50: 16.1 µM (inactive)
NCI-H522
  GI50: 20.7 µM (inactive)
SW-620
  GI50: 17.7 µM (inactive)
NCI-H23
  GI50: 25.1 µM (inactive)
SK-MEL-5
  GI50: 13.7 µM (inactive)
UACC-62
  GI50: 16.1 µM (inactive)
MDA-N
  GI50: 13.5 µM (inactive)
MCF7
  GI50: 14.6 µM (inactive)
PC-3
  GI50: 7.82 µM (inactive)
Malme-3M
  GI50: 29.6 µM (inactive)
COLO 205
  GI50: 17.4 µM (inactive)
UACC-257
  GI50: 21.8 µM (inactive)
786-0
  GI50: 10 µM (inactive)
CCRF-CEM
  GI50: 3.58 µM (inactive)
OVCAR-8
  GI50: 7.78 µM (inactive)
T47D
  GI50: 20.7 µM (inactive)
HT-29
  GI50: 15.3 µM (inactive)
HOP-62
  GI50: 19.8 µM (inactive)
SF-539
  GI50: 28.7 µM (inactive)
OVCAR-3
  GI50: 21.6 µM (inactive)
TK-10
  GI50: 35.2 µM (inactive)
Hs-578T
  GI50: 14.3 µM (inactive)
RXF 393
  GI50: 32.2 µM (inactive)
SN12C
  GI50: 15.2 µM (inactive)
RPMI-8226
  GI50: 22.3 µM (inactive)
SF-268
  GI50: 26.3 µM (inactive)
NCI-H460
  GI50: 4.43 µM (inactive)
LOX IMVI
  GI50: 2.65 µM (inactive)
NCI/ADR-RES
  GI50: 17.3 µM (inactive)

## CCCCCCC(CCl)c1sc(-c2csc(CCNC(=O)OC(C)(C)C)n2)nc1C(=O)OC (configuration not stated)
A498
  GI50: 28.8 µM (inactive)
KM12
  GI50: 17.8 µM (inactive)
HL-60
  GI50: 17.3 µM (inactive)
ACHN
  GI50: 23.3 µM (inactive)
OVCAR-5
  GI50: 32.1 µM (inactive)
IGROV-1
  GI50: 30.2 µM (inactive)
BT-549
  GI50: 18.5 µM (inactive)
HCT-116
  GI50: 15.5 µM (inactive)
CAKI-1
  GI50: 29 µM (inactive)
MDA-MB-231
  GI50: 26.9 µM (inactive)
K562
  GI50: 13.5 µM (inactive)
SF-295
  GI50: 32.2 µM (inactive)
MDA-MB-435
  GI50: 12.5 µM (inactive)
MOLT-4
  GI50: 4.58 µM (inactive)
SK-MEL-2
  GI50: 11.7 µM (inactive)
U-251
  GI50: 16.2 µM (inactive)
A549
  GI50: 26.4 µM (inactive)
OVCAR-4
  GI50: 9.98 µM (inactive)
SR
  GI50: 3.94 µM (inactive)
DU-145
  GI50: 33.7 µM (inactive)
HCT-15
  GI50: 14.1 µM
SK-MEL-28
  GI50: 28.6 µM (inactive)
EKVX
  GI50: 26.6 µM (inactive)
UO-31
  GI50: 14.9 µM (inactive)
SNB-19
  GI50: 40.6 µM (inactive)
HCC 2998
  GI50: 22.7 µM (inactive)
NCI-H522
  GI50: 22 µM (inactive)
SW-620
  GI50: 36 µM (inactive)
NCI-H23
  GI50: 15.3 µM (inactive)
SK-MEL-5
  GI50: 4.37 µM (inactive)
UACC-62
  GI50: 13.8 µM (inactive)
MDA-N
  GI50: 26.7 µM (inactive)
MCF7
  GI50: 11 µM (inactive)
PC-3
  GI50: 15.9 µM (inactive)
COLO 205
  GI50: 35.6 µM (inactive)
UACC-257
  GI50: 27.1 µM (inactive)
786-0
  GI50: 19.3 µM (inactive)
CCRF-CEM
  GI50: 17.2 µM (inactive)
OVCAR-8
  GI50: 24.6 µM (inactive)
T47D
  GI50: 3.53 µM (inactive)
HT-29
  GI50: 20.6 µM (inactive)
HOP-62
  GI50: 39.8 µM (inactive)
SF-539
  GI50: 21.4 µM (inactive)
OVCAR-3
  GI50: 21.9 µM (inactive)
TK-10
  GI50: 20.4 µM (inactive)
Hs-578T
  GI50: 16.2 µM (inactive)
SN12C
  GI50: 19.2 µM (inactive)
SK-OV-3
  GI50: 19.1 µM (inactive)
RPMI-8226
  GI50: 9.68 µM (inactive)
SF-268
  GI50: 20.3 µM (inactive)
HOP-92
  GI50: 40.8 µM (inactive)
NCI-H460
  GI50: 18.2 µM (inactive)
LOX IMVI
  GI50: 13.2 µM (inactive)
NCI/ADR-RES
  GI50: 2.32 µM (inactive)
